The conditions of data set [1]: rats suffering from artificial peritonitis; cited from earlier work.
The next data set relates to immune function. Particulars: cited from earlier work.
Data set [2] in a line: Oxidation of vitamin C dissolved in a juice. Type of data set: physicochemical. Conditions: within about 90 minutes.
Data set [3] in a line: Activity of vitamin C in drip infusion depending on pH. Type of data set: physicochemical. Particulars: drip infusion with a pH of 7.0 or greater.
Data set [4] can be described thus: Viscosity of mucopolysaccharides after adding vitamin C (Oswald viscometer). Conditions: vitamin C added to mucopolysaccharides.

Regarding `N=C(N)NCCC[C@H](N)C(=O)O` [arginine], in data set [1], the survivorship entry is “remarkably increased survivorship”. Moreover, the “decreased weight of the thymus gland and decreased T-cells' capability of blast transformation” value in the data set with immune function (rat suffering from fracture) is recorded as “recovered”. In addition, in the data set with immune function (rats), the “T-cells' capability of blast transformation” value is “increases” and the “weight of the thymus gland” value is “increases”.
Consider `O=C1O[C@H]([C@@H](O)CO)C(O)=C1O` [vitamin C, ascorbic acid], for which the “vitamin C that becomes an oxidized derivative” value in data set [2] is 50%. Also, the “activity of vitamin C” value in data set [3] is “decreases”. Moreover, the “viscosity of the mixture” value in data set [4] was “gradually decreases”.
